Data as given in patent publication US10612051B2, “Method of producing bioproducts” (White Dog Labs, Inc., priority 2015, dated 2020).

What was measured:
[1] = Extraction of aqueous bioproduct solutions with 1-butene in a pressure vessel (distribution coefficient); assay type: physicochemical; settings: for DC (bioproduct distribution coefficient): 1-butene / aqueous phase, Table 1; for Extract Bioproduct conc. (%) / Raffinate Bioproduct conc. (%): 100 g aqueous solution, 2% initial bioproduct, mixed with 100 g 1-butene; for Extract Bioproduct conc. (%): extract phase; for Raffinate Bioproduct conc. (%): raffinate phase
Experimental: (§1) 100 g (grams) aqueous solutions of various bioproducts were prepared. Bioproduct initial concentration was 2%. Each of these bioproduct aqueous solutions was extracted in a pressure vessel by mixing with 100 g 1-butene (the olefin). The amount of formed extract and formed raffinate and the concentration (conc.) of the bioproduct in each were determined. Theses concentrations were used to calculate the bioproduct distribution coefficient (DC). Table 2 compares the found distribution coefficients to those of extracting with dimethyl ether (DME).

[2] = Extraction with dimethyl ether (DME), distribution coefficient for comparison; assay type: physicochemical; settings: extracting with dimethyl ether
Experimental: as §1

[3] = 25° C.; cited from earlier work

Structure (SMILES) | DC (bioproduct distribution coefficient) [1] | Extract Bioproduct conc. (%) [1] [%] | Raffinate Bioproduct conc. (%) [1] [%] | Distribution coefficient DME [2] | n-butanol content of saturated aqueous solution [3]
CCCC(C)=O [Example 2-Pentanone, 2-Pentanone] | 7.95 | 1.81 | 0.23 | 5.82 | 
CCCCO [n-butanol] |  |  |  |  | about 7.3 wt %
O=C1CCCO1 [Gamma Butyrolactone] | 3.69 | 1.60 | 0.43 | 3.14 | 
CCCC(=O)OC [Methyl Butyrate] | 53.8 | 2.00 | 0.038 | 20.73 | 
O=Cc1ccco1 [Furfural] | 3.35 | 1.56 | 0.47 | 3.79 | 
O=C(O)CCCC(=O)O [Glutaric Acid] | 0.27 | 0.44 | 1.51 | 1.88 | 
O=C(O)CCC(=O)O [Succinic Acid] | 0.11 | 0.158 | 1.77 | 1.01 | 
CCC(=O)O [Propionic Acid] | 1.01 | 1.00 | 1.00 | 2.27 | 
CCCC=O [Butanal] | 6.96 | 1.78 | 0.26 | 5.11 | 
